Assay: xn = mol fraction of the nth substance listed
Details: 101 kPa, x2 = 0.3209

CCCC[n+]1ccn(C)c1.O=S(=O)([O-])C(F)(F)F + NCCO
Details	speed of sound [m/s]	viscosity [mPa·s]
298.15 K	1428.8	41.99
303.15 K	1417	34.4
308.15 K	1405.2	28.38
313.15 K	1393.2	23.76
318.15 K	1382.1	20.13
323.15 K	1370.6	17.25
328.15 K	1359.2	14.94
333.15 K	1348	13.05

Source: a compilation of properties of binary mixtures (doi:10.1021/acs.jced.0c00618)
